In paper PMC6274350, “Design, Synthesis, and Cytotoxicity of 5-Fluoro-2-methyl-6-(4-aryl-piperazin-1-yl) Benzoxazoles” (Molecules, 2016):

Experiments:
[1] = test system: A-549 lung carcinoma cells; test: CellTiter-Glo luminescent cell viability (cytotoxicity) assay on lung cancer cells; type: cell-based, human; conditions: for Lung cancer cells killed: A-549; for Lung cancer cells killed / viability at 10 µM: 10 µM; for viability at 0.1 µM / viability at 1 µM / viability at 10 µM / viability at 50 µM / viability at 100 µM: Homo sapiens, A549, Lung cancer cells (A-549), 24 h, vs DMSO vehicle
Procedure: (§1) The cytotoxicity of prepared benzoxazoles (7a–j) and intermediates (6a–j and 9) were measured by applying the CellTiter-Glo® luminescent cell proliferation assay (G755A, Promega, Madison, WI, USA). This method permits the determination of viable cells numbers in the culture based on quantitation of the ATP present, which denotes the presence of metabolically active cells. In vitro cytotoxicity analysis was overall performed following the protocol as described in “Guidance Document on Using in Vitro Data to Estimate in Vivo Starting Doses for Acute Toxicity Based on Recommendations” [18]. Human A-549 cells are human lung cancer epithelial cells, which were chosen as the tumor model, whereas the HepaRG™ cell line is a classic hepatic cell line that retains many characteristics of primary human hepatocytes. HepaRG™ cells are terminally differentiated.
(§2) Human cell cultures: Hepatocytes (HepaRG^TM cells) were obtained from Life Technologies, and were cultivated in William’s E Medium (Gibco, Life Technologies, Waltham, MA, USA) and supplemented with 1x GlutaMAX™ plus 1x HepaRG^TM General Purpose Medium Supplement in 25-cm^2 or 75-cm^2 flasks (TPP, Trasadingen, Switzerland) at 37 °C and 5% CO2. Lung cancer epithelial cells A-549 were propagated in Epilife Medium (Gibco, Life Technologies; MEPICF) and combined with CaCl2 and 1x-growth-supplement containing penicillin and streptomycin (Gibco, Life Technologies). For sub-culturing, cells were split at a ratio of 1:4 to 1:8. For cryopreservation, cells were frozen in 10% DMSO in liquid nitrogen.
(§3) Human cytotoxicity assay: Human hepatocytes or human lung carcinoma cells were seeded into sterile black clear-bottomed polystyrene Corning® CellBind® 96-well plates (Munich, Germany) at a density of 20,000 cells/well after calculating cell numbers from trypsinized samples in a classical Neubauer Improved hemocytometer (VWR, Munich, Germany). The cells were grown for 24 h at 37 °C in a 5% CO2 atmosphere in Epilife medium (keratinocytes) or William′s E medium (hepatocytes). After a 24-h recovery period, media were removed from the wells by aspiration. The cells were then immediately exposed to the respective test compounds or reference antibiotics (prepared in advance in 100 µL of the same media) for 24 h 37 °C with 5% CO2. The concentration tested ranged from 0.1 µM to 500 µM (0.1 µM, 1 µM, 10 µM, 50 µM, 100 µM, 250 µM, and 500 µM) and was formulated as a 100× concentrated stock each, resulting in a final constant DMSO concentration of 1% per 100-µL sample volume. Test series were each performed in triplicate, and additionally included a vehicle reference (DMSO only) plus another internal control for evaluating overall assay performance. Additionally, cells were visually examined under a light microscope for any morphological abnormalities relative to the untreated cells. Subsequently, cell viability, as an indicator of potential cytotoxicity, was measured by applying the CellTiter-Glo® luminescent cell proliferation assay (G755A, Promega, Madison, WI, USA). This method permits the determination of the number of viable cells in culture based on quantitation of the ATP present, which denotes the presence of metabolically active cells. To this end, 100 µL (equal to the volume of culture medium) of the kit-provided CellTiter-Glo® reagent (reconstituted by transferring the thawed CellTiter-Glo® buffer to the lyophilized enzyme and substrate mixture) was directly added to each well with a repetitive dispensing pipette. The contents were then mixed for 2 min at room temperature on an orbital minishaker (IKA® MS3 digital, Staufen, Germany) at 450 rpm to induce efficient cell lysis, and then further incubated for 10 min at room temperature for stabilization of the resultant luminescent signal. […]

[2] = CellTiter-Glo luminescent cell viability (cytotoxicity) assay on hepatocytes; type: cell-based, human; conditions: human, Liver cells, hepatocytes (HepaRG), 24 h, vs DMSO vehicle
Procedure: as §1, §2, §3

SMILES	melting point [°C]	Lung cancer cells killed [1]	viability at 0.1 µM [1] [%]	viability at 1 µM [1] [%]	viability at 10 µM [1] [%]	viability at 50 µM [1] [%]	viability at 100 µM [1] [%]	viability at 24 h, 0.1 µM [2] [%]	viability at 24 h, 1 µM [2] [%]	viability at 24 h, 10 µM [2] [%]	viability at 24 h, 50 µM [2] [%]	viability at 24 h, 100 µM [2] [%]
O=[N+]([O-])c1cc(F)c(Cl)cc1O	82 to 83											
O=[N+]([O-])c1cc(F)c(N2CCN(c3ccccc3)CC2)cc1O [Compound 6a, 4-Fluoro-2-nitro-5-(4-phenyl-piperazin-1-yl)-phenol]	197 to 198	~ 40%	97	104	64	61	58	86	97	112	90	76
Cc1ccc(N2CCN(c3cc(O)c([N+](=O)[O-])cc3F)CC2)cc1 [Compound 6b, 4-Fluoro-2-nitro-5-(4-p-tolyl-piperazin-1-yl)-phenol]	178 to 179		99	100	68	65		107	123	120	97	96
O=[N+]([O-])c1cc(F)c(N2CCN(c3ccc(O)cc3)CC2)cc1O [Compound 6c, 4-Fluoro-5-[4-(4-hydroxy-phenyl)-piperazin-1-yl]-2-nitro-phenol]	218 to 219		104	103	102	94		95	101	110	101	89

The next lines start with results.

melting point [°C]	SMILES	Lung cancer cells killed [1]	viability at 0.1 µM [1] [%]	viability at 1 µM [1] [%]	viability at 10 µM [1] [%]	viability at 50 µM [1] [%]	viability at 100 µM [1] [%]	viability at 24 h, 0.1 µM [2] [%]	viability at 24 h, 1 µM [2] [%]	viability at 24 h, 10 µM [2] [%]	viability at 24 h, 50 µM [2] [%]	viability at 24 h, 100 µM [2] [%]
202 to 204	COc1ccc(N2CCN(c3cc(O)c([N+](=O)[O-])cc3F)CC2)cc1 [Compound 6e, 4-Fluoro-5-[4-(4-methoxy-phenyl)-piperazin-1-yl]-2-nitro-phenol]		101	104	96	71		107	110	104	74	79
176 to 178	O=[N+]([O-])c1cc(F)c(N2CCN(c3ccccc3O)CC2)cc1O [Compound 6f, 4-Fluoro-5-[4-(2-hydroxy-phenyl)-piperazin-1-yl]-2-nitro-phenol]		97	100	93	60	46	105	104	110	76	
180 to 181	O=[N+]([O-])c1cc(F)c(N2CCN(c3ccccc3F)CC2)cc1O [Compound 6g, 4-Fluoro-5-[4-(2-fluoro-phenyl)-piperazin-1-yl]-2-nitro-phenol]	~ 40%	96	96	62	51	42	110	109	112	87	
207 to 208	O=[N+]([O-])c1cc(F)c(N2CCN(c3cccc(O)c3)CC2)cc1O [Compound 6h, 4-Fluoro-5-[4-(3-hydroxy-phenyl)-piperazin-1-yl]-2-nitro-phenol]		106	106	105	87		117	109	108	83	58
